Test results published in patent publication US8758743B2, “Compositions containing coenzyme Q10” (Taiyo Kagaku Co., Ltd., priority 2003, dated 2014).
Read-outs that look alike come from different tables or passages of the source.

Assays:
[1] = Storage of powder products at 50° C. under light shielding (Test Example 1-1); type: physicochemical
Protocol: In addition, the powder products of Examples 1-6 and 1-7 and a coenzyme Q10 itself (manufactured by Kanegafuchi Kagaku Kogyo Kabushiki Kaisha) were used as test samples, and the storage states before the beginning of storage, and after storage at 50° C. for 4 weeks or 12 weeks passed under light shielding were confirmed.

[2] = Bioabsorbability Test 2 of coenzyme Q10 (Test Example 1-4); type: in vivo; details: male, SD, rat, plasma, po, 5 mg/kg; for concentration at 1 h: 1 hour after administration; for AUC: read-out: AUC1-24
Protocol: The bioabsorbability of a coenzyme Q10 was evaluated by administering each of the coenzyme Q10-containing composition of Example 1-2 and a coenzyme Q10 itself to a rat as a test sample, sampling blood over time, and measuring the coenzyme Q10 concentration in the plasma, and the bioabsorbability was compared among the test samples.
The feeding conditions were set in 2 ways; a case where rats were allowed to take the feed ad libitum (satiation), and a case where rats were made to fast since the early-evening of the previous day of the test, and where the rats were fed again after blood sampling of 8 hours after the administration of the test sample.
The solution of distilled water in Tests A and A′ was prepared by adding the coenzyme Q10-containing composition of Example 1-2 to distilled water and mixing the mixture. The suspension of a 0.5(w/v)% aqueous CMC—Na solution in Tests B and B′ was prepared by adding a coenzyme Q10 itself to a 0.5(w/v)% aqueous CMC-Na solution and subjecting the mixture to ultrasonication.
The conditions and the like for this test are listed hereinbelow. • Rat: SD line, 7-week old, male, n=4 • Dose: The test samples calculated as 5 mg of a coenzyme Q10 per 1 kg of the body weight of a rat were administered. • Amount of administered liquid: The suspension or the solution used in Tests A, A′, B, or B′ was administered in an amount of 5 mL per 1 kg of the body weight of a rat.
Method of administration, blood sampling, time of blood sampling, processing of blood and method of quantification were same as those in the above-mentioned Test Example 1-3.

Storage State ([1]; after 4 weeks): Melted
Storage State ([1]; after 12 weeks): Melted
concentration at 1 h ([2]; fasting): 30 ± 10 ng/mL
concentration at 2 h ([2]; fasting): 30 ± 10 ng/mL
concentration at 4 h ([2]; fasting): 30 ng/mL
concentration at 8 h ([2]; fasting): 30 ± 10 ng/mL
concentration at 24 h ([2]; fasting): 40 ± 110 ng/mL
AUC ([2]; fasting): 780 ± 300 ng·h/mL
concentration at 1 h ([2]; satiation): 120 ± 70 ng/mL
concentration at 2 h ([2]; satiation): 170 ± 110 ng/mL
concentration at 4 h ([2]; satiation): 260 ± 90 ng/mL
concentration at 8 h ([2]; satiation): 270 ± 90 ng/mL
concentration at 24 h ([2]; satiation): 110 ± 40 ng/mL
AUC ([2]; satiation): 4780 ± 1310 ng·h/mL
SMILES: COC1=C(OC)C(=O)C(C/C=C(\C)CC/C=C(\C)CC/C=C(\C)CC/C=C(\C)CC/C=C(\C)CC/C=C(\C)CC/C=C(\C)CC/C=C(\C)CC/C=C(\C)CCC=C(C)C)=C(C)C1=O [Coenzyme Q10 Powder, coenzyme Q10]
